Test results: patent US12042486B2, “Use of bulleyaconitine A” (YUNNAN HAOPY PHARMACEUTICALS LTD, priority 2018, dated 2024)
Values joined by “and” are separate entries in the source; they are usually repeats but may differ in a detail not shown here. Identical values can stand only once.

How the values were obtained:
Format in all cases: in vivo, mouse
[1] = tested on: acute itch caused by histamine; experiment: Acute itch model: scratching of mice after subcutaneous histamine, BLA given intragastrically 2 h before; conditions: for Number of scratching in mouse in the histamine group (single animals): between 2 and 2.5 hours after BLA (30 min), individual mouse; for Number of scratching in mouse in the histamine group, average number: 30 min, solvent group 36.56667
Source text: (§1) Researches over the years have shown that itch is mainly transmitted by two types of C fibers, with one sensitive to histamine and the other to chloroquine. Therefore, the scratching response of animals caused by subcutaneous injection of histamine or chloroquine is internationally recognized as an acute itch model. The present disclosure is aimed to investigate whether the intragastric administration of bulleyaconitine A (BLA) can inhibit acute itch caused by histamine or chloroquine.
(§2) 6-8 weeks old C57 mice were employed in experiments (body weight of 17-20 grams, from the Experimental Animal Center of Sun Yat-Sen University). The mice were randomly divided into four groups, namely solvent+histamine control group, BLA+histamine group, solvent+chloroquine control group and BLA+chloroquine group. For the convenience of subcutaneous injection and observation of scratching, the hair around the neck and back (at least 3×5 cm) was shaved off under temporary anesthesia with isoflurane three days before the start of the experiments. The control group was given a subcutaneous injection of 50 μl of histamine (2 mg/ml) or chloroquine (4 mg/ml), with an intragastric administration of a solvent (carboxymethyl cellulose) 2 hours before the injection. The experiment group was given an intragastric administration of BLA with different dosages (0.125, 0.25 and 0.5 mg/kg), 2 hours before the injection of histamine or chloroquine. The BLA was administered 2 hours in advance, because it needs 1.5-2 hours for BLA to take effect from its intragastric administration. The number of scratching in each group was counted within 30 minutes for comparison, because the acute scratching response induced by histamine or chloroquine subsided 30 minutes later after drug injection as shown by previous studies.
(§3) During the recording in experiment, the mice were placed in separate, transparent acrylic boxes having a size of 15×15×20 cm each, and with two small openings at top of each box to allow air to circulate. The scratching behavior was recorded as video by a camera, which was placed above mouse because their behaviors of scratching their back or neck mostly happen in an angle of view directly opposite to their upper back.
(§4) In order to minimize attentional shift and eliminate tension as much as possible, each transparent box was supplied with a small amount of padding, to absorb any urine excreted from the mouse. The ambient temperature was kept at 23-27° C., and additionally all the staff were asked to leave during the recording to keep the experimental environment quiet. The experiment was carried out between 9:00-14:00 h. To acclimatize the animals to the test environment, the mouse had been acclimatized in the transparent box for one hour at 9:00 and 13:00 every day since two days before the formal experiment. Because the scratching of a mice often happens quickly, the action from mice starting to scratch its neck or back by its hind paw until the hind paw hitting on the ground or being put into its mouth to clean the dander is taken as one scratching behavior.
(§5) Statistical methods: the number of scratching was represented by average value±standard deviation, and Turkey test was employed to compare the difference between different groups.
(§6) Solution preparation and application method: 0.05 g of BLA was weighed and dissolved in 1000 ml of 0.5% sodium carboxymethyl cellulose solution. Histamine and chloroquine were prepared with 0.9% sterile saline, to make a dosage of histamine 100 μg and chloroquine 200 μg. To minimize the skin injure at the injection site, a thinner needle in 0.3 ml for insulin was connected to the needle port of the microinjector to reduce injure to mouse.

[2] = Observation of drowsiness or other side effects in mice of the itch experiments
Source text: as §2
BLA inhibited the itch caused by histamine or chloroquine in a manner of depending on the dosage of intragastric administration.

[3] = tested on: acute itch caused by chloroquine; experiment: Acute itch model: scratching of mice after subcutaneous chloroquine, BLA given intragastrically 2 h before; conditions: for Number of scratching in mouse in the chloroquine group (single animals): between 2 and 2.5 hours after BLA (30 min), individual mouse; for Number of scratching in mouse in the chloroquine group, average number: 30 min, solvent group 92.565556
Source text: as §1, §2, §3, §4, §5, §6

[4] = 0.5 mg/kg intragastric, P<0.001 vs solvent group
[5] = oral administration, 0.125-0.5 mg/kg

In the case of `CCN1C[C@]2(COC)CC[C@H](OC)[C@]34C1[C@H]([C@H](OC)[C@H]23)[C@@]1(OC(C)=O)C[C@H](OC)[C@]2(O)C[C@@H]4[C@@H]1[C@H]2OC(=O)c1ccc(OC)cc1` [BLA, Bulleyaconitine A], the “Number of scratching in mouse in the histamine group (single animals)” value ([1]; 0.125 mg/kg BLA intragastric + histamine s.c.) was 22 and 33 and 0 and 18 (2×) and 47 and 43 (3×) and 77 and 60 and 46 (2×) and 42 and 16 and 21 and 87 and 26 and 17 and 38 (3×) and 37 and 3 and 84 and 35 and 64 and 52 and 6 and 25, the “Number of scratching in mouse in the histamine group, average number” value (“Number … in the histamine group, average number” for short) ([1]; 0.125 mg/kg BLA intragastric + histamine, n=30) was 37.5 and the “Inhibition of itching caused by histamine (in words)” value ([1]; 0.125 mg/kg intragastric) was “did not inhibit”. The “Number … in the histamine group, average number” value ([1]; 0.25 mg/kg BLA intragastric + histamine, n=38) was 24.76, the “Inhibition of scratching response caused by histamine (in words)” value ([1]; 0.25 mg/kg intragastric, P<0.05 vs solvent group) was “significantly inhibited” and the “Number of scratching in mouse in the histamine group (single animals)” value ([1]; 0.5 mg/kg BLA intragastric + histamine s.c.) was 0 (12×) and 50 and 38 and 48 and 26. The “Number … in the histamine group, average number” value ([1]; 0.5 mg/kg BLA intragastric + histamine, n=16) was 10.1325, the “Inhibition of acute itch caused by histamine (in words)” value [1, 4] was “completely inhibited” and the “Dose dependence of inhibition of itching caused by histamine” value [1, 5] was “in a dosage-dependent manner”. For the same compound, the “Drowsiness or other side effects in mouse” value ([2]; 0.125 mg/kg intragastric) was “no drowsiness or other side effects in mouse was observed”, the “Drowsiness or other side effects in mouse” value ([2]; 0.25 mg/kg intragastric) was “no drowsiness or other side effects in mouse was observed” and the Drowsiness in mouse ([2]; 0.5 mg/kg intragastric) was “drowsiness in mouse was observed”. For the same compound, the “Number of scratching in mouse in the chloroquine group (single animals)” value ([3]; 0.125 mg/kg BLA intragastric + chloroquine s.c.) was 29 and 70 and 90 and 31 and 115 and 185 and 89 and 40 and 130 and 23 and 197 and 24 (2×) and 53 and 10 and 182 and 27 and 26 and 138 and 48 and 41 and 62 and 34 and 93 and 45, the “Number of scratching in mouse in the chloroquine group, average number” value ([3]; 0.125 mg/kg BLA intragastric + chloroquine, n=25) was 72.24 and the “Inhibition of acute itch caused by chloroquine (in words)” value ([3]; 0.125 mg/kg intragastric, P>0.05, not statistically significant) was “only had slightly inhibitory effect”. The “Number of scratching in mouse in the chloroquine group (single animals)” value ([3]; 0.25 mg/kg BLA intragastric + chloroquine s.c.) was 43 and 75 (2×) and 136 and 0 (3×) and 33 and 101 and 25 (2×) and 38 and 26 and 30 and 78 (3×) and 34 and 37 and 10 and 64 and 118 and 53 and 17 and 23 and 143 and 80 and 47, the “Number of scratching in mouse in the chloroquine group, average number” value ([3]; 0.25 mg/kg BLA intragastric + chloroquine, n=28) was 52.39 and the “Inhibition of scratching response caused by chloroquine (in words)” value ([3]; 0.25 mg/kg intragastric, P<0.01 vs solvent group) was “significantly inhibited”. For the same compound, the “Number of scratching in mouse in the chloroquine group (single animals)” value ([3]; 0.5 mg/kg BLA intragastric + chloroquine s.c.) was 0 (13×) and 27 and 20 and 23, the “Number of scratching in mouse in the chloroquine group, average number” value ([3]; 0.5 mg/kg BLA intragastric + chloroquine, n=16) was 4.3875 and the “Inhibition of acute itch caused by chloroquine (in words)” value [3, 4] was “completely inhibited”. The “Dose dependence of inhibition of itching caused by chloroquine” value [3, 5] was “in a dosage-dependent manner”.
